According to ChEMBL document CHEMBL5154681, “Small Amphiphilic Peptides: Activity Against a Broad Range of Drug-Resistant Bacteria and Structural Insight into Membranolytic Properties” (J Med Chem, 2022):
≈ marks a conversion by molar mass, not a printed value. Square brackets hold non-standard residues; d marks the D form. Peptide text beside a SMILES is read from it. Bip = N[C@@H](Cc1ccc(-c2ccccc2)cc1)C(=O)O; Dip = N[C@H](C(=O)O)C(c1ccccc1)c1ccccc1; 2Nal = N[C@@H](Cc1ccc2ccccc2c1)C(=O)O

Experiments:
[1] = Hemolytic activity in human RBC assessed as hemolysis incubated for 2 hrs by spectrophotometer analysis; assay type: toxicity, cell-based, Erythrocyte; details: human red blood cells (erythrocytes)
[2] = tested on: Staphylococcus aureus; experiment: Antibacterial activity against methicillin resistant Staphylococcus aureus ATCC BAA-1556 incubated for 24 hrs by microtiter plate method; assay type: functional
[3] = tested on: Staphylococcus aureus; experiment: Antibacterial activity against Staphylococcus aureus ATCC 29213 incubated for 24 hrs by microtiter plate method; assay type: functional; details: Staphylococcus aureus, ATCC 29213, read-out: MIC
[4] = tested on: Pseudomonas aeruginosa; experiment: Antibacterial activity against Pseudomonas aeruginosa ATCC 27883 incubated for 24 hrs by microtiter plate method; assay type: functional; details: Pseudomonas aeruginosa, ATCC 27883, 24 h, read-out: MIC
[5] = tested on: Escherichia coli; experiment: Antibacterial activity against Escherichia coli ATCC 25922 incubated for 24 hrs by microtiter plate method; assay type: functional; details: Escherichia coli, ATCC 25922, 24 h, read-out: MIC
[6] = Staphylococcus aureus, ATCC BAA-1556, 24 h, read-out: MIC

| SMILES | HC50 at 2 h [1] | MIC [2, 6] | MIC [3] | MIC [4] | MIC [5] | MIC ([2]; 24 h) |
| --- | --- | --- | --- | --- | --- | --- |
| N=C(N)NCCC[C@H](NC(=O)[C@H](Cc1ccc2ccccc2c1)NC(=O)[C@H](Cc1ccc2ccccc2c1)NC(=O)[C@H](CCCNC(=N)N)NC(=O)[C@H](CCCNC(=N)N)NC(=O)[C@H](Cc1ccc2ccccc2c1)NC(=O)[C@@H](N)CCCNC(=N)N)C(=O)O (H-R[2Nal]RR[2Nal][2Nal]R-OH) | 205 µg/mL | 25 µg/mL (≈ 20.3 µM) | 12.5 µg/mL (≈ 10.1 µM) | 50 µg/mL (≈ 40.5 µM) | 25 µg/mL (≈ 20.3 µM) | – |
| N=C(N)NCCC[C@@H]1NC(=O)[C@H](CCCNC(=N)N)NC(=O)[C@H](CCCNC(=N)N)NC(=O)[C@H](Cc2ccc3ccccc3c2)NC(=O)[C@H](Cc2ccc3ccccc3c2)NC(=O)[C@H](Cc2ccc3ccccc3c2)NC(=O)[C@H](Cc2ccc3ccccc3c2)NC(=O)[C@H](CCCNC(=N)N)NC1=O (cyclo([2Nal][2Nal][2Nal][2Nal]RRRR)) | 30 µg/mL | 6.2 µg/mL (≈ 4.39 µM) | 3.1 µg/mL (≈ 2.19 µM) | 50 µg/mL (≈ 35.4 µM) | 25 µg/mL (≈ 17.7 µM) | – |
| N=C(N)NCCC[C@@H]1NC(=O)[C@H](CCCNC(=N)N)NC(=O)[C@H](Cc2ccc3ccccc3c2)NC(=O)[C@H](Cc2ccc3ccccc3c2)NC(=O)[C@H](Cc2ccc3ccccc3c2)NC(=O)[C@H](CCCNC(=N)N)NC1=O (cyclo([2Nal][2Nal][2Nal]RRR)) | 50 µg/mL | 6.2 µg/mL (≈ 5.85 µM) | 3.1 µg/mL (≈ 2.92 µM) | 50 µg/mL (≈ 47.2 µM) | 25 µg/mL (≈ 23.6 µM) | – |
| N=C(N)NCCC[C@H](NC(=O)[C@H](CCCNC(=N)N)NC(=O)[C@H](CCCNC(=N)N)NC(=O)[C@@H](N)CCCNC(=N)N)C(=O)N[C@@H](CCCNC(=N)N)C(=O)N[C@H](C(=O)N[C@H](C(=O)N[C@H](C(=O)O)C(c1ccccc1)c1ccccc1)C(c1ccccc1)c1ccccc1)C(c1ccccc1)c1ccccc1 (H-RRRRR[Dip][Dip][Dip]-OH) | 165 µg/mL | 12.5 µg/mL (≈ 8.51 µM) | 12.5 µg/mL (≈ 8.51 µM) | 50 µg/mL (≈ 34 µM) | 25 µg/mL (≈ 17 µM) | – |
| N=C(N)NCCC[C@H](NC(=O)[C@H](CCCNC(=N)N)NC(=O)[C@@H](N)CCCNC(=N)N)C(=O)N[C@H](C(=O)N[C@H](C(=O)N[C@H](C(=O)O)C(c1ccccc1)c1ccccc1)C(c1ccccc1)c1ccccc1)C(c1ccccc1)c1ccccc1 (H-RRR[Dip][Dip][Dip]-OH) | 120 µg/mL | 6.2 µg/mL (≈ 5.36 µM) | 6.2 µg/mL (≈ 5.36 µM) | 25 µg/mL (≈ 21.6 µM) | 6.2 µg/mL (≈ 5.36 µM) | – |
| N=C(N)NCCC[C@@H]1NC(=O)[C@H](CCCNC(=N)N)NC(=O)[C@H](C(c2ccccc2)c2ccccc2)NC(=O)[C@H](C(c2ccccc2)c2ccccc2)NC(=O)[C@H](CCCNC(=N)N)NC(=O)[C@H](CCCNC(=N)N)NC(=O)[C@H](C(c2ccccc2)c2ccccc2)NC1=O (stereo in doubt; 16C) | 130 µg/mL | – | 6.2 µg/mL (≈ 4.79 µM) | 50 µg/mL (≈ 38.6 µM) | > 100 µg/mL | 6.2 µg/mL (≈ 4.79 µM) |
| N=C(N)NCCC[C@@H]1NC(=O)[C@H](CCCNC(=N)N)NC(=O)[C@H](CCCNC(=N)N)NC(=O)[C@H](Cc2ccc(-c3ccccc3)cc2)NC(=O)[C@H](Cc2ccc(-c3ccccc3)cc2)NC(=O)[C@H](Cc2ccc(-c3ccccc3)cc2)NC(=O)[C@H](CCCNC(=N)N)NC1=O (cyclo([Bip][Bip][Bip]RRRR)) | – | 6.2 µg/mL (≈ 4.79 µM) | 3.1 µg/mL (≈ 2.39 µM) | 25 µg/mL (≈ 19.3 µM) | > 100 µg/mL | – |
| NCCCC[C@H](NC(=O)[C@H](CCCCN)NC(=O)[C@H](CCCCN)NC(=O)[C@@H](N)CCCCN)C(=O)N[C@@H](CCCCN)C(=O)N[C@H](C(=O)N[C@H](C(=O)N[C@H](C(=O)O)C(c1ccccc1)c1ccccc1)C(c1ccccc1)c1ccccc1)C(c1ccccc1)c1ccccc1 (H-KKKKK[Dip][Dip][Dip]-OH) | 280 µg/mL | 50 µg/mL (≈ 37.6 µM) | 50 µg/mL (≈ 37.6 µM) | > 100 µg/mL | > 100 µg/mL | – |
| N=C(N)NCCC[C@@H]1NC(=O)[C@H](CCCNC(=N)N)NC(=O)[C@H](Cc2ccc(-c3ccccc3)cc2)NC(=O)[C@H](Cc2ccc(-c3ccccc3)cc2)NC(=O)[C@H](Cc2ccc(-c3ccccc3)cc2)NC(=O)[C@H](CCCNC(=N)N)NC1=O (cyclo([Bip][Bip][Bip]RRR)) | – | 50 µg/mL (≈ 43.9 µM) | 50 µg/mL (≈ 43.9 µM) | > 100 µg/mL | > 100 µg/mL | – |
| N=C(N)NCCC[C@H](NC(=O)[C@H](CCCNC(=N)N)NC(=O)[C@H](CCCNC(=N)N)NC(=O)[C@@H](N)CCCNC(=N)N)C(=O)N[C@@H](Cc1ccc2ccccc2c1)C(=O)N[C@@H](Cc1ccc2ccccc2c1)C(=O)O (H-RRRR[2Nal][2Nal]-OH) | 180 µg/mL | 6.2 µg/mL (≈ 5.98 µM) | 6.2 µg/mL (≈ 5.98 µM) | > 100 µg/mL | 50 µg/mL (≈ 48.2 µM) | – |
| N=C(N)NCCC[C@H](NC(=O)[C@@H](NC(=O)[C@@H](NC(=O)[C@H](CCCNC(=N)N)NC(=O)[C@H](CCCNC(=N)N)NC(=O)[C@@H](NC(=O)[C@@H](N)CCCNC(=N)N)C(c1ccccc1)c1ccccc1)C(c1ccccc1)c1ccccc1)C(c1ccccc1)c1ccccc1)C(=O)O (H-R[Dip]RR[Dip][Dip]R-OH) | 220 µg/mL | 25 µg/mL (≈ 19 µM) | 12.5 µg/mL (≈ 9.52 µM) | 100 µg/mL (≈ 76.2 µM) | 25 µg/mL (≈ 19 µM) | – |
| N=C(N)NCCC[C@@H]1NC(=O)[C@H](CCCNC(=N)N)NC(=O)[C@H](CCCNC(=N)N)NC(=O)[C@H](C(c2ccccc2)c2ccccc2)NC(=O)[C@H](C(c2ccccc2)c2ccccc2)NC(=O)[C@H](C(c2ccccc2)c2ccccc2)NC(=O)[C@H](C(c2ccccc2)c2ccccc2)NC(=O)[C@H](CCCNC(=N)N)NC1=O (cyclo([Dip][Dip][Dip][Dip]RRRR)) | 40 µg/mL | 6.2 µg/mL (≈ 4.08 µM) | 3.1 µg/mL (≈ 2.04 µM) | 25 µg/mL (≈ 16.5 µM) | 25 µg/mL (≈ 16.5 µM) | – |
| N=C(N)NCCC[C@H](NC(=O)[C@H](CCCNC(=N)N)NC(=O)[C@H](CCCNC(=N)N)NC(=O)[C@@H](N)CCCNC(=N)N)C(=O)N[C@@H](Cc1ccc(-c2ccccc2)cc1)C(=O)N[C@@H](Cc1ccc(-c2ccccc2)cc1)C(=O)N[C@@H](Cc1ccc(-c2ccccc2)cc1)C(=O)N[C@@H](Cc1ccc(-c2ccccc2)cc1)C(=O)O (H-RRRR[Bip][Bip][Bip][Bip]-OH) | – | > 100 µg/mL | > 100 µg/mL | > 100 µg/mL | > 100 µg/mL | – |
| N=C(N)NCCC[C@H](NC(=O)[C@H](CCCNC(=N)N)NC(=O)[C@H](CCCNC(=N)N)NC(=O)[C@@H](N)CCCNC(=N)N)C(=O)N[C@@H](Cc1ccc(-c2ccccc2)cc1)C(=O)N[C@@H](Cc1ccc(-c2ccccc2)cc1)C(=O)N[C@@H](Cc1ccc(-c2ccccc2)cc1)C(=O)O (H-RRRR[Bip][Bip][Bip]-OH) | – | 12.5 µg/mL (≈ 9.52 µM) | 6.2 µg/mL (≈ 4.72 µM) | 25 µg/mL (≈ 19 µM) | > 100 µg/mL | – |
| N=C(N)NCCC[C@H](NC(=O)[C@H](CCCNC(=N)N)NC(=O)[C@@H](N)CCCNC(=N)N)C(=O)N[C@@H](Cc1ccc(-c2ccccc2)cc1)C(=O)N[C@@H](Cc1ccc(-c2ccccc2)cc1)C(=O)N[C@@H](Cc1ccc(-c2ccccc2)cc1)C(=O)O (H-RRR[Bip][Bip][Bip]-OH) | – | 50 µg/mL (≈ 43.2 µM) | 50 µg/mL (≈ 43.2 µM) | > 100 µg/mL | > 100 µg/mL | – |
| N=C(N)NCCC[C@@H]1NC(=O)[C@H](CCCNC(=N)N)NC(=O)[C@H](CCCNC(=N)N)NC(=O)[C@H](Cc2ccc(-c3ccccc3)cc2)NC(=O)[C@H](Cc2ccc(-c3ccccc3)cc2)NC(=O)[C@H](Cc2ccc(-c3ccccc3)cc2)NC(=O)[C@H](Cc2ccc(-c3ccccc3)cc2)NC(=O)[C@H](CCCNC(=N)N)NC1=O (cyclo([Bip][Bip][Bip][Bip]RRRR)) | – | > 100 µg/mL | 50 µg/mL (≈ 32.9 µM) | > 100 µg/mL | > 100 µg/mL | – |
